The text below walks through data of patent US20240300997A1, “PROTEIN FOLDING AGENT” (TOHOKU UNIVERSITY, priority 2021, published 2024).

Experiment [1] has as its target T1, native type β2m (Homo sapiens, UniProt P61769).
T1 construct: made in house; host or cells: E. coli
Kind of experiment: β2m aggregation experiment by heating. It is filed as biochemical. As to conditions: 1 mM thiol compound; for appearance of the solution after cooling (before centrifugation): 10 µM native type β2m, heated from 25° C. to 50° C., 10 minutes, cooled to 25° C., FIG. 8; for residual rate of the native type β2m in the supernatant liquid: after heating to 50° C. and centrifugation, absorbance at 280 nm, FIG. 9. On the procedure: A buffer containing 10 µM of native type β2m (50 mM Tris-HCl, pH 7.5; 300 mM NaCl) was heated from 25° C. to 50° C., equilibrated for 10 minutes when the temperature reached 50° C., and then cooled to 25° C. For a supernatant liquid of the fraction obtained after centrifugation, a residual rate of the native type β2m in the supernatant liquid was measured by measuring an absorbance at 280 nm using a spectrophotometer.
For a buffer containing 10 µM of native type β2m (50 mM Tris-HCl, pH 7.5; 300 mM NaCl), 1 mM of the following thiol compound was added, and the obtained mixture was heated from 25° C. to 50° C., equilibrated for 10 minutes when the temperature reached 50° C., and then cooled to 25° C.
For a supernatant liquid of the fraction obtained after centrifugation, a residual rate of the native type β2m in the supernatant liquid was measured by measuring an absorbance at 280 nm using a spectrophotometer.

The target of experiment [2] is T2, reduced and denatured β2m (β2-microglobulin) (Homo sapiens, UniProt P61769).
T2 construct: made in house; host or cells: E. coli
T2 sequence (P61769 21-119): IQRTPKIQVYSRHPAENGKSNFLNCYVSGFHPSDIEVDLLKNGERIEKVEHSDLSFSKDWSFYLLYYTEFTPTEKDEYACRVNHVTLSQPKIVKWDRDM
Nature of the experiment: Disulfide bond introduction ability into reduced and denatured β2m (reversed-phase HPLC). Conditions: 1 mM thiol compound and 0.2 mM disulfide compound. The experiment is classed as biochemical. On the procedure: β2m was expressed as a recombinant by an E. coli expression system, and the collected cells were suspended in lysate A (50 mM Tris-HCl, pH 8.1; 300 mM NaCl), followed by ultrasonic disintegration. The fraction obtained after centrifugation was incubated in the presence of 8 M urea and 20 mM DTT at pH 8.0 and 50° C. for 3 hours, followed by purification by reversed-phase column chromatography (Hitachi) using a Cosmosil 5C18-AR-II column. • Reference Document 1: M. Okumura, H. Kadokura, S. Hashimoto, K. Yutani, S. Kanemura, T. Hikima, Y. Hidaka, L. Ito, K. Shiba, S. Masui, D. Imai, S. Imaoka, H. Yamaguchi, K. Inaba, Inhibition of the functional interplay between endoplasmic reticulum (ER) oxidoreduclin-1α (Ero1α) and protein-disulfide isomerase (PDI) by the endocrine disruptor bisphenol A. J Biol Chem. 2014 289(39): 27004-27018. • Reference Document 2: J. S. Weissman, P. S. Kim, Reexamination of the folding of BPTI: predominance of native intermediates. Science 1991 253 (5026): 1386-93. • Reference Document 3: M. M. Lyles, H. F. Gilbert Catalysis of the oxidative folding of ribonuclease A by protein disulfide isomerase: dependence of the rate on the composition of the redox buffer. Biochemistry. 1991 30 (3): 613-9.
A buffer having the following combinations of 1 mM of a thiol compound and 0.2 mM of a disulfide compound (50 mM Tris-HCl, pH 7.5; 300 mM NaCl) was incubated at 30° C. with 10 μM of the reduced and denatured β2m prepared in the above 8), followed by a folding reaction.
The reaction solution was dispensed over time, followed by adding an equal amount of 6 M guanidine hydrochloric acid and 1.5 M HCl, and the disulfide bond introduction reaction was quenched. In order to identify the molecular species in the reaction solution, the resultant was subjected to reversed-phase HPLC, and an oxidation type (N) and a reduction type (R) of β2m were analyzed (FIG. 4A to FIG. 4C and FIG. 5). […]
Measurement and analysis conditions of the reversed-phase HPLC are shown below. 5C18-AR2 column (4.6×150 mm; NACALAI TESQUE) was used as a column, and an absorbance at 229 nm was detected. […]

T1 sequence (P61769 21-119): as above

Turning to `NCC(S)CN` [BDA-SH, 1,3-diaminopropane-2-thiol], in experiment [1], the “appearance of the solution after cooling (before centrifugation)” value is “transparent”; the “residual rate of the native type β2m in the supernatant liquid” value was “higher than that in the case of no additive and in the case of GSH”.
As for `NCC(CN)SSC(CN)CN` [BDA-SS], in experiment [2], the “reaction rate constant of the disulfide bond introduction reaction (pseudo-first-order reaction)” value is recorded as 3.59×10^−2.
As for `NCCNCCS` [LDA-SH, 2-((2-aminoethyl)amino)ethane-1-thiol], in experiment [1], the “appearance of the solution after cooling (before centrifugation)” value is on record as “transparent”; the “residual rate of the native type β2m in the supernatant liquid” value was “higher than that in the case of no additive and in the case of GSH”.
In the case of `NCCNCCSSCCNCCN` [LDA-SS], the “reaction rate constant of the disulfide bond introduction reaction (pseudo-first-order reaction)” value in experiment [2] was 6.96×10^−4.
Still for that read-out and setting: the figure for “oxidized glutathione [GSSG, reference compound]” is 1.12×10^−4.
